# According to US11034666B2, “Anti-inflammatory and antitumor 2-oxothiazoles and 2-oxothiophenes compounds” (Avexxin AS, priority 2013, dated 2021):
# Assays:
# [1] = tested on: collagen-induced arthritis (CIA) mouse model; assay: Prophylactic collagen-induced arthritis (CIA) study; type: in vivo, male DBA/1 mice
# Experimental: The prophylactic effect of Compound A on CIA model in male DBA/1 mice^57 following intraperitoneal (ip) administration, treatment starting 1 hour prior to the last immunization was studied. A study comparing naïve mice (healthy, non-CIA, non-treated), vehicle-treated mice (CIA with DMSO, ip) and CIA mice treated daily with Compound A (7.5 mg/kg, ip) or MTX (0.3 mg/kg, ip) was performed. CIA developed rapidly in mice immunized with CII. In the prophylactic study, a 100% incidence of CIA was observed by day 29 in CII-immunized mice, with maximum AI of 8.55 observed at 41 days post immunization. The AI and incidence of all groups increased in a time-dependent mode from day 25 to day 41.
# Separate prophylactic and therapeutic efficacy studies of COMPOUND A were performed. Methotrexate (MTX) (Jiangsu Hengrui Medicine Co, #11041411), Enbrel (Boehringer Ingelheim Pharma KG, # F39487), and vehicle (DMSO 100%, Sigma Aldrich # D2650) were administered to all groups via intraperitoneal injection once daily at a dose volume of 2 mL/kg. Observations for morbidity, mortality, injury, and the availability of food and water were conducted twice daily for all animals. Clinical observations were conducted daily during the study. Body weights were measured and recorded prior to randomization and then once daily during the study. Food consumption was measured and recorded daily. Biopsies for mid-term histology analysis were obtained on Day 13 in the prophylactic study. Necropsy examinations were performed at study termination; plasma samples were collected, organ weights were recorded
# (§1) For the prophylactic and the therapeutic studies, CIA was induced in male DBA/1 mice (except naïve mice) by immunization with 0.1 mL emulsion containing an equal volume of bovine type II collagen solution (2 mg/mL) and Freuds Complete Adjuvant at the tail base. The first injection was given on Day 0 and the second injection as booster was given on Day 21 (41-43). COMPOUND A, vehicle (DMSO) and MTX (0.3 mg/kg) were administered daily, Enbrel (25 mg/kg) was administrated twice a week. For the prophylactic study, treatment started one hour before the second collagen injection and continued for 21 days except for the histology groups that were sacrificed at Day 13 ([…]). For the therapeutic study, treatment started at Day 28 and continued for 14 days.
# CIA Assessment and Treatment. CIA was assessed in mice by two blinded observers to measure paw swelling with a capacity measurement method on Day 0, Day 20, Day 22, Day 25, Day 27, Day 29, Day 32, Day 34, Day 36, Day 39 and Day 41 after the first injection. The occurrence of arthritis was observed by scoring all paws for severity of erythema and swelling, using a clinical score ranging from 0 (no swelling) to 4 (severe swelling and erythema). The physical condition of the animals was observed daily. Scores and overall evaluation of the histology group arms were performed in the same way as the main groups. However, the values measured were not included in the mean value calculations of the main groups. The YLS-7B Foot Volume Measuring Instrument (Huaibei China Bio Equipment) was used to measure the foot volume of mice. The occurrence of arthritis was observed by scoring all paws for severity of erythema and swelling, using a clinical score ranging from 0 (no swelling) to 4 (severe swelling and erythema), i.e. yielding maximum arthritic index (AI) score 16 (46).
# Measurement of the histopathology and clinical observations. At the end of the studies, one hind foot of each mouse was collected for histopathology. The foot including the ankle was fixed in 10% neutral formalin. The ankle joints were decalcified, dehydrated, embedded in paraffin, sectioned and stained with routine hematoxylin-eosin. The sections were studied using light microscopy (10×10 and 20×10 magnifications). Arthritis damage (histological damage score) was evaluated and scored by an investigator blinded for the treatment regimen. […]
# MAS98.12 xenograft = assay: Patient-derived basal-like breast cancer xenograft, long-term treatment; type: in vivo, mouse
# Experimental: As described more fully below, we conducted a study in a patient-derived xenograft model of basal-like breast cancer, which is responsive to […], is highly vascularised and has a high expression of cPLA2. The mice received 30 mg Compound A/kg bw by ip. injection daily for a 7 days, then every second day for 14 more days. A group of control mice received DMSO only. Tumor volumes were measured throughout the study period.
# Mouse model: MAS98.12. This model is established from a primary breast carcinoma at the Institute for Cancer Research, OUS [10]. The MR Cancer Group has previously characterised this model both with respect to metabolic profile, vascularisation, response to antiangiogenic treatment and response to PI3K inhibition. Treatment was initiated when the xenograft tumors had reached a volume of 83±51 mm3 (tumor volume=d1×d2×[…]). The majority of mice had bilateral tumors.
# Mice received 30 mg/kg bw COMPOUND A in 50 μl DMSO, through intraperitoneal injection. Control groups received volume-matched, drug-free DMSO injections. Tumor volume measured with electronic callipers from day −3 until the end of the experiment (Day 19).
# Arm 2: Long-term treatment One group (n=6, 11 tumors) treated with COMPOUND A daily for 7 days, then every 2nd day for the remainder of the study. Controls (n=6, 10 tumors) treated with drug-free DMSO according to the same protocol. […] Throughout the study, the tumor volume was measured every 2-3 days, and the body weight of the mice was monitored regularly.
# PGE2 = assay: Plasma PGE2 EIA, prophylactic CIA study; type: in vivo, male DBA/1 mice
# Experimental: PGE2 is recognized as an important contributor to the joint inflammation in rheumatoid arthritis,^60 and we investigated if plasma PGE2 levels were changed in response to treatment. […] There were no significant differences between the treatment groups (p>0.05).
# PGE2 EIA analysis of blood plasma from the prophylactic and therapeutic CIA studies was performed according to kit protocol. Plasma samples were diluted 1:1000-1:6000 in EIA buffer and allowed to hybridize over-night (18 hrs, 4° C.). The plate was read using a Multiscan plate reader (Ascent Labsystems) (OD550 nm). The corresponding Ascent software for Multiscan, Version 2.4.1 was used to obtain the data. PGE2 levels for all treatments are shown relative to the DMSO-treated vehicle arthritic mice (n=10-11 mice in each category±SD).
# as §1
# [2] = hind paw, Compound A 7.5 mg/kg, MTX 0.3 mg/kg
compound,measurement,setting,value
"CCCCCCCCc1ccc(OCC(=O)c2nc(C(=O)OC)cs2)cc1 [Compound A, Methyl 2-(2-(4-octylphenoxy)acetyl)thiazole-4-carboxylate]",arthritic index (AI) in comparison to the CIA control group (in words),"[1]; Days 32 to 41, Compound A 7.5 mg/kg ip daily, MTX 0.3 mg/kg ip daily",significantly reduced
same,"articular cavity and peripheral tissue inflammatory cell infiltration, histopathology vs vehicle (in words)",[1]; [2],reduced
same,"capillary and synovial hyperplasia, histopathology vs vehicle (in words)",[1]; [2],reduced
same,"cartilage damage, histopathology vs vehicle (in words)",[1]; [2],no significant effect
same,tumor volume as % of the control tumors,"MAS98.12 xenograft; 30 mg/kg bw ip daily for 7 days, then every second day for 14 more days, end of the study",36%
same,tolerability (in words),"MAS98.12 xenograft; 30 mg/kg ip, long-term treatment",well tolerated with no overt adverse effects
same,body weight,"MAS98.12 xenograft; 30 mg/kg ip, Day 5",24 ± 3 g
same,body weight,"MAS98.12 xenograft; 30 mg/kg ip, Day 19",27 ± 3 g
same,maximal tumor diameter,"MAS98.12 xenograft; 30 mg/kg ip, Day 19",10.5 mm
same,effect on tumor growth (in words),"MAS98.12 xenograft; 30 mg/kg ip, FIG. 1",strong inhibitory effect on tumor growth
same,tumor volume,"MAS98.12 xenograft; 30 mg/kg ip, end of the study (Day 19), control 759±401",265±138 mm^3
same,plasma PGE2 level,"PGE2; prophylactic CIA study, Compound A 7.5 mg/kg, MTX 0.3 mg/kg, vehicle 223.4±107, mean ± SD",139.8 ± 92 ng/mL
same,reduction of plasma PGE2 levels,"PGE2; prophylactic mode, vs vehicle",about 40%
